Data taken from PubChem BioAssay (NCI).
Where “and” joins values, the source holds several entries; their conditions need not be identical. Equal values may be shown once.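 Exposure lasted 48 hours, with cells grown in 96-well plates and compounds tested at five concentrations. Here, GI50 denotes the concentration required for 50% inhibition of growth. At the TGI there is no net growth.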

Columns and labels:
Assay in all cases: growth of human tumour cells (NCI), 48 h
SW-620 colon = tested on: SW-620 colon
SF-295 CNS = tested on: SF-295 CNS
NCI-H226 lung = tested on: NCI-H226 lung
HL-60(TB) leukemia = tested on: HL-60(TB) leukemia
UACC-257 melanoma = tested on: UACC-257 melanoma
MCF7 breast = tested on: MCF7 breast
NCI-H522 lung = tested on: NCI-H522 lung
PC-3 prostate = tested on: PC-3 prostate
UO-31 renal = tested on: UO-31 renal
HCC-2998 colon = tested on: HCC-2998 colon

SMILES	TGI (SW-620 colon)	TGI (SF-295 CNS) [µM]	TGI (NCI-H226 lung)	TGI (HL-60(TB) leukemia)	TGI (UACC-257 melanoma)	TGI (MCF7 breast) [µM]	TGI (NCI-H522 lung)	TGI (PC-3 prostate) [µM]	TGI (UO-31 renal)	TGI (HCC-2998 colon)	GI50 (SW-620 colon) [µM]	GI50 (SF-295 CNS) [µM]	GI50 (NCI-H226 lung)	GI50 (HL-60(TB) leukemia) [µM]	GI50 (UACC-257 melanoma)	GI50 (MCF7 breast) [µM]	GI50 (NCI-H522 lung)	GI50 (PC-3 prostate) [µM]	GI50 (UO-31 renal) [µM]	GI50 (HCC-2998 colon) [µM]
CN(C)CC1CCCCCC(Br)C1=O (configuration not stated)	12.7 µM	> 100	> 53.9 µM	30.1 µM	23 µM	12.7	8.72 µM	43.6	26.6 µM	25.7 µM	–	–	–	–	–	–	–	–	–	–
CC(C)=CC(=O)N[C@@H]1CC2CCC3C(CC[C@@]4(C)C3CC[C@@H]4C(C)N(C)C)[C@@]2(C)C[C@@H]1O (some centres not stated)	10.5 µM	16.6	> 41.4 µM	6.14 µM	11.2 µM	21.1	31.3 µM	32.7	4.43 µM	16.8 µM	2.86	3.45	8.04 µM	1.61	3.53 µM	2.95	7.47 µM	3.73	1.62	5.44
CCSc1ccc([C@@H]2[C@@H](N)C(=O)N2c2cc(OC)c(OC)c(OC)c2)cc1	> 100 µM	> 100	> 100 µM	0.067 µM	> 100 µM	> 100	0.0966 µM	> 100	> 100 µM	> 100 µM	0.0476	0.0515	79 µM	0.0257	> 100 µM	0.0392	0.0238 µM	0.0773	0.59	0.755
O=C1CC(c2ccsc2)c2snc(-c3ccc(Cl)cc3)c2N1 (configuration not stated)	> 100 µM	19.7	> 100 µM	3.33 µM	> 100 µM	> 100	13.5 µM	> 100	> 100 µM	> 100 µM	0.429	1.87	7.55 µM	1.11	4.08 µM	0.563	0.626 µM	2.05	3.86	1.99
O=C1/C(=C/c2ccc(Cl)cc2)CN(C(=O)CCN2CCC(=NO)CC2)C/C1=C\c1ccc(Cl)cc1	0.467 µM	2.86	2.75 µM	4.9 µM	3.43 µM	1.59	2.29 µM	1.57	2.3 µM	1.88 µM	0.179	1.46	1.35 µM	1.37	1.67 µM	0.284	0.731 µM	0.481	1.01	0.699
CCCCCCCCCCCC1=NC(C)(C)CN1CC(C)O (configuration not stated)	3.91 µM	17.8	28.6 µM	5.68 µM	7.49 µM	4.77	15.9 µM	18.6	18.7 µM	3.07 µM	1.85	4.36	13.1 µM	2.44	2.81 µM	2.05	3.42 µM	4.48	4.75	1.69
Clc1ccc2nc(Cl)c3ccccc3c2c1	> 100 µM	35.7	> 100 µM	> 100 µM	> 100 µM	> 100	> 100 µM	> 100	38.1 µM	> 100 µM	> 100	10.5	14 µM	> 100	> 100 µM	96	63.4 µM	> 100	3.82	> 100
CC#CC#C/C=C1\C=CC2(OC=CC2OC(C)=O)O1 (configuration not stated)	65.9 µM and 39.7 µM	> 100	> 100 µM and 23.4 µM	36.5 µM and > 86.7 µM	> 100 µM and 33.6 µM	30.8	39.2 µM and 11.1 µM	> 100	30.8 µM and 36.2 µM	69.9 µM and 45.9 µM	–	–	> 100 µM and 11.1 µM	–	30.5 µM and 15 µM	–	14.7 µM and 5.72 µM	–	–	–
CCOC(=O)c1ccccc1SC(C[N+](=O)[O-])c1ccccc1 (configuration not stated)	4.7 µM	34.6	44.5 µM	27.9 µM	–	4.12	23.3 µM	16.6	7.22 µM	3.36 µM	2.04	18.3	16.1 µM	5.96	–	1.07	11 µM	4.4	2.43	1.86
Cc1ccc2nc3c(n2c1)C(=O)C(=O)c1ccccc1-3	0.411 µM	0.937	1.29 µM	0.602 µM	0.382 µM	0.308	0.538 µM	3.81	1 µM	2.19 µM	0.198	0.287	0.371 µM	0.17	0.146 µM	0.14	0.216 µM	0.59	0.194	0.707
CCCCCCCCCCCCCCCC(=O)OCC1OC(OC)C(NC(=O)N(CCCl)N=O)C(O)C1O (configuration not stated)	28.5 µM	24.7	39.7 µM	28.3 µM	47.8 µM	> 100	34.7 µM	51.7	48.9 µM	48.2 µM	–	–	–	–	–	–	–	–	–	–
O=C(CCN1CCCC1)Nc1ccc2c(NCCc3ccccc3)c3ccccc3nc2c1	1.36 µM	1.53	1.95 µM	1.67 µM	2.71 µM	1.14	1.27 µM	1.55	3.69 µM	1.98 µM	0.3	0.381	0.374 µM	0.389	1.02 µM	0.305	0.308 µM	0.406	1.49	0.51
COc1cnc2c(c1)C(=O)c1c-2n(CCCNCCN2CCOCC2)c(=O)c2cc([N+](=O)[O-])ccc12	8.68 µM	0.964	–	0.818 µM	13.3 µM	10.2	1.38 µM	13	–	1.54 µM	0.128	0.0735	–	0.104	0.586 µM	0.0323	0.0787 µM	0.568	0.0523	0.303
CN(C)c1ccc2cc3ccc(N(C)C)cc3nc2c1	–	15.2	19.9 µM	3.66 µM	24.8 µM	11.5	7.56 µM	9.48	4.11 µM	2.64 µM	–	–	–	–	–	–	–	–	–	–
